Measurements taken from ChEMBL document CHEMBL4321809, “Structure-Reactivity Relationships on Substrates and Inhibitors of the Lysine Deacylase Sirtuin 2 from Schistosoma mansoni (SmSirt2)” (J Med Chem, 2019).
pIC50: −log10 of the molar value. The source made the active and inactive calls. No cut-off for these calls is given here.

Experiments:
[1] = target: T1, NAD-dependent protein deacetylase (Schistosoma mansoni, UniProt T1VXA1); assay: Inhibition of recombinant Schistosoma mansoni sirtuin 2 (21 to 322 residues) expressed in Escherichia coli BL21(DE3) cells using ZMAL as substrate after 1 hr in presence of NAD+ by homogeneous fluorescence based analysis
T1 sequence (T1VXA1 whole entry): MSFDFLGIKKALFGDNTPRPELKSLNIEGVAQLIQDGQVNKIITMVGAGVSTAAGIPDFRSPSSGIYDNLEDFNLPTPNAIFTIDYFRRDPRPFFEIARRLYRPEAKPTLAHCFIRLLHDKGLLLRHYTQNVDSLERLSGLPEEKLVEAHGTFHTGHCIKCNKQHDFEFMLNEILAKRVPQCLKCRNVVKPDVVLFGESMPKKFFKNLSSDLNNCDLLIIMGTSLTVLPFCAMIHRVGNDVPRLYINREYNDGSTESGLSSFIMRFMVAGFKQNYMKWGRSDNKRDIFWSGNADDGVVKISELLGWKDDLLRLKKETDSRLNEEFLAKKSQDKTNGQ

[2] = target: T2, NAD-dependent protein deacetylase sirtuin-2 (Homo sapiens, UniProt Q8IXJ6); assay: Inhibition of N-terminal His6 tagged human sirtuin 2 (25 to 389 residues) using Cbz-Lys(acetyl)-AMC as substrate after 4 hrs in presence of NAD+ by homogeneous fluorescence based analysis
T2 sequence (Q8IXJ6 whole entry): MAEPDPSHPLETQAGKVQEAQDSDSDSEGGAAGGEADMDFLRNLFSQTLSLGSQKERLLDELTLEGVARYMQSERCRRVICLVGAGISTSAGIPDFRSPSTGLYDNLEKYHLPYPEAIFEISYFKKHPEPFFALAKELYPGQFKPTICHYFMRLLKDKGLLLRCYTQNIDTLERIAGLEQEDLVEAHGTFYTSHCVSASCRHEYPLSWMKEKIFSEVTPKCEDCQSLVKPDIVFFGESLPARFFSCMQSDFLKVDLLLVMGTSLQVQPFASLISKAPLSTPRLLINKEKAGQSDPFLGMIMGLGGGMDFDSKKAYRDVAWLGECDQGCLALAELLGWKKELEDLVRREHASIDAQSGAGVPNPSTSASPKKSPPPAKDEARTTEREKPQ

[3] = target: T2, NAD-dependent protein deacetylase sirtuin-2; assay: Inhibition of N-terminal His6 tagged human sirtuin 2 (25 to 389 residues) at 25 uM using Cbz-Lys(acetyl)-AMC as substrate after 4 hrs in presence of NAD+ by homogeneous fluorescence based analysis relative to control
[4] = target: T3, NAD-dependent protein deacetylase (Schistosoma mansoni) (UniProt T1VXA1); assay: Inhibition of recombinant Schistosoma mansoni sirtuin 2 (21 to 322 residues) expressed in Escherichia coli BL21(DE3) cells at 25 uM using ZMAL as susbtrate after 1 hr in presence of NAD+ by homogeneous fluorescence based analysis relative to control
T3 sequence (whole entry): T1 sequence (T1VXA1 whole entry)

Schistosoma mansoni [5] = assay: Antiparasitic activity against Schistosoma mansoni Puerto Rico assessed as reduction in parasite viability at 10 to 20 uM after 72 hrs by microscopic analysis; assay type: functional, organism-based
Schistosoma mansoni [6] = assay: Antiparasitic activity against adult Schistosoma mansoni Puerto Rico assessed as reduction in worm pairing at 10 to 20 uM after 24 hrs by microscopic analysis; assay type: functional, organism-based
HL-60 = assay: Cytotoxicity against human HL60 cells at 10 uM after 72 hrs by Cell titer MTS dye based analysis; settings: hl-60, 72 h
Schistosoma mansoni [7] = assay: Antiparasitic activity against adult Schistosoma mansoni Puerto Rico assessed as reduction in egg laying at 10 to 20 uM after 24 hrs by microscopic analysis; assay type: functional, organism-based
[8] = target: T4, NAD-dependent protein deacetylase sirtuin-1 (Homo sapiens, UniProt Q96EB6); assay: Inhibition of human sirtuin 1 at 25 uM relative to control
T4 sequence (Q96EB6 whole entry): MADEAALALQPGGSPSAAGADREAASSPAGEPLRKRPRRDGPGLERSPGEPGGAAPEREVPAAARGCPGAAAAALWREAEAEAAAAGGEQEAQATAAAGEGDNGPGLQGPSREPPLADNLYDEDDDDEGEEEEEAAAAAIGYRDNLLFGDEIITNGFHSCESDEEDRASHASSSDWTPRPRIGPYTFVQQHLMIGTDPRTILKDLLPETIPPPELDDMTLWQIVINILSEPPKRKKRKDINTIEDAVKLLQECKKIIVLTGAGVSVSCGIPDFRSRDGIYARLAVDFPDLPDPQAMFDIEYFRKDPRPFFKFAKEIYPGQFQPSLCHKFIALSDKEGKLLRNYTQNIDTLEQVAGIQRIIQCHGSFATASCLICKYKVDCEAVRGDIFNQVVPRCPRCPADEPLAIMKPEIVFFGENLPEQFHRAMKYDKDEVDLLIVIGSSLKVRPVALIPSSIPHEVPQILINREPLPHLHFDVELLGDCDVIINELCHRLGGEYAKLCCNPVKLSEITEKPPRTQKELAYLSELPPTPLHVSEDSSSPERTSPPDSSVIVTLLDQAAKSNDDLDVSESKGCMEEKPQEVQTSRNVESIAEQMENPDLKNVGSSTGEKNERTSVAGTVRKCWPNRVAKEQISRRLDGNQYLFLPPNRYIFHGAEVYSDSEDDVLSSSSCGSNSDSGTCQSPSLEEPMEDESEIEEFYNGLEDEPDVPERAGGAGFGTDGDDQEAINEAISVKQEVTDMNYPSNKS

[9] = target: T5, NAD-dependent protein deacetylase sirtuin-3, mitochondrial (Homo sapiens, UniProt Q9NTG7); assay: Inhibition of human sirtuin 3 at 25 uM relative to control
T5 sequence (Q9NTG7 whole entry): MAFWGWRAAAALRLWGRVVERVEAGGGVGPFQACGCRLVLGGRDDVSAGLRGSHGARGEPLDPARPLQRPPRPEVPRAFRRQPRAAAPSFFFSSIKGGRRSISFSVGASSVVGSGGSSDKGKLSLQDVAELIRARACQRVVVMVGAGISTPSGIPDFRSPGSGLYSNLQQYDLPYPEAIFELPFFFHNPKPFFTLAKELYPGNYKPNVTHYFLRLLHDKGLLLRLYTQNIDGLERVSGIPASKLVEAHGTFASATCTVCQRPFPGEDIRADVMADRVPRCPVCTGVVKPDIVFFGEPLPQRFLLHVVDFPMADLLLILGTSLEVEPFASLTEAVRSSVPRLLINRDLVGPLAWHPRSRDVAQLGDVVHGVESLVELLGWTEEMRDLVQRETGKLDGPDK

Row | SMILES | pIC50 [1] | inhibition at 25 µM [3] [%] | inhibition [4] [%] | other results
1 | COc1ccc(Sc2ccc(C(C)N(C)c3ncc4c(N)nc(N)nc4n3)cc2)cc1 (configuration not stated) | 4.83 | – | – | pIC50 [2]: 4.88
2 | COc1cc(Oc2ccc(C(C)N(C)c3ncc4c(N)nc(N)nc4n3)cc2)cc(OC)c1OC (configuration not stated) | 4.51 | 29.2 | – | –
3 | COc1ccc(Oc2ccc(C(C)N(C)c3ncc4c(N)nc(N)nc4n3)cc2)cc1OC (configuration not stated) | 4.35 | 35.3 | – | –
4 | Nc1nc(N)c2cnc(N3CCN(c4ccccc4)CC3)nc2n1 | – | < 15 | < 15 | –
5 | CC(c1ccc(Oc2ccc(OCc3ccccc3)cc2)cc1)N(C)c1ncc2c(N)nc(N)nc2n1 (configuration not stated) | – | 70.4 | 40.3 | –
6 | Nc1nc(N)c2cnc(N3CCc4ccccc4C3)nc2n1 | – | < 15 | < 15 | –
7 | Nc1nc(N)c2cnc(NC3CCN(Cc4ccccc4)CC3)nc2n1 | – | 23.2 | < 15 | –
8 | Nc1ncc2c(N)nc(N)nc2n1 | – | < 15 | < 15 | –
9 | COc1ccc(Oc2ccc(C(c3ccccc3)N(C)c3ncc4c(N)nc(N)nc4n3)cc2)cc1 (configuration not stated) | 5.63 | 22.1 | – | Imax [4]: 60%; inhibition (Schistosoma mansoni [5]): Active; inhibition (Schistosoma mansoni [6]): Active; Activity (HL-60): Non-Toxic; inhibition (Schistosoma mansoni [7]): Active
10 | CC1CCCCN1c1ncc2c(N)nc(N)nc2n1 (configuration not stated) | – | < 15 | < 15 | –
11 | COc1ccc(COc2ccc(C(C)N(C)c3ncc4c(N)nc(N)nc4n3)cc2)cc1 (configuration not stated) | – | 61.7 | 46.2 | inhibition (Schistosoma mansoni [5]): Active; inhibition (Schistosoma mansoni [6]): Active; inhibition at 25 µM [8]: < 15%; Activity (HL-60): Toxic; inhibition at 25 µM [9]: < 15%; inhibition (Schistosoma mansoni [7]): Active
12 | CC(c1ccc(-c2ccccc2)cc1)N(C)c1ncc2c(N)nc(N)nc2n1 (configuration not stated) | – | < 15 | 24.8 | –
13 | CC(=O)Nc1ccc(-c2noc(CC3CCCN(Cc4cccc(F)c4C)C3)n2)cc1 (configuration not stated) | 4.84 to 4.85 | – | – | pIC50 [2]: 5.10 to 5.44
14 | COc1ccc(Oc2ccc(C(C(C)C)N(C)c3ncc4c(N)nc(N)nc4n3)cc2)cc1 (configuration not stated) | 4.56 | 57.4 | – | –
15 | CN(Cc1ccccc1)c1ncc2c(N)nc(N)nc2n1 | – | < 15 | < 15 | –
16 | COc1ccc(Nc2ccc(C(C)N(C)c3ncc4c(N)nc(N)nc4n3)cc2)cc1 (configuration not stated) | 4.19 | 40.8 | – | –
17 | COc1ccc(Oc2ccc(CN(C)c3ncc4c(N)nc(N)nc4n3)cc2)cc1 | – | < 15 | < 15 | inhibition (Schistosoma mansoni [5]): Active; inhibition (Schistosoma mansoni [6]): Active; inhibition at 25 µM [8]: < 15%; Activity (HL-60): Toxic; inhibition at 25 µM [9]: < 15%; inhibition (Schistosoma mansoni [7]): Active

Row | SMILES | pIC50 [1] | inhibition at 25 µM [3] [%] | inhibition [4] [%] | other results
18 | CCCCCCCC(=O)Nc1ccc(-c2noc(CC3CCCN(Cc4cccc(F)c4C)C3)n2)cc1 (configuration not stated) | – | < 15 | 30.5 | –
19 | CNC(C)c1ccc(Oc2ccccc2)cc1 (configuration not stated) | – | < 15 | < 15 | –
20 | CC(c1ccc(Oc2ccccc2)cc1)N(C)c1ncc2c(N)nc(N)nc2n1 (configuration not stated) | – | < 15 | 27.6 | –
21 | COc1ccc(CNc2ncc3c(N)nc(N)nc3n2)cc1 | – | < 15 | < 15 | –
22 | COc1ccc(C(C)N(C)c2ncc3c(N)nc(N)nc3n2)cc1 (configuration not stated) | – | < 15 | < 15 | –
23 | CC(c1ccc(Oc2ccc(OC(F)(F)F)cc2)cc1)N(C)c1ncc2c(N)nc(N)nc2n1 (configuration not stated) | – | 37.5 | 20.3 | –
24 | COc1cccc(Oc2ccc(C(C)N(C)c3ncc4c(N)nc(N)nc4n3)cc2)c1 (configuration not stated) | 4.64 | 33.8 | – | –
25 | COc1ccc(Oc2ccc(C(C)N(C)c3ncc4c(N)nc(N)nc4n3)cc2)c2ccccc12 (configuration not stated) | – | 30.6 | 18.4 | –
26 | COC1=C(OC)C(=O)C(CCCCCCCCCCO)=C(C)C1=O [IDEBENONE] | 5.72 | – | – | pIC50 [2]: 4.81
27 | CCCCCCCCCC(=O)Nc1ccc(-c2noc(CC3CCCN(Cc4cccc(F)c4C)C3)n2)cc1 (configuration not stated) | – | < 15 | < 15 | –
28 | CC(c1ccccc1)N(C)c1ncc2c(N)nc(N)nc2n1 (configuration not stated) | – | < 15 | < 15 | –
29 | COc1cc(OC)cc(Oc2ccc(C(C)N(C)c3ncc4c(N)nc(N)nc4n3)cc2)c1 (configuration not stated) | 4.90 | 7.4 | – | inhibition (Schistosoma mansoni [5]): Active; inhibition (Schistosoma mansoni [6]): Active; Activity (HL-60): Non-Toxic; inhibition (Schistosoma mansoni [7]): Active
30 | COc1ccc(Oc2ccc(CN(C)c3ncc(C#N)c(N)n3)cc2)cc1 | – | < 15 | < 15 | –
31 | COc1ccc(Oc2ccc(C(C)Nc3ncc4c(N)nc(N)nc4n3)cc2)cc1 (configuration not stated) | – | 21 | 37.5 | –
32 | CCC(c1ccc(Oc2ccc(OC)cc2)cc1)N(C)c1ncc2c(N)nc(N)nc2n1 (configuration not stated) | 4.89 | – | – | pIC50 [2]: 4.44
33 | CC(Nc1ncc2c(N)nc(N)nc2n1)c1ccccc1 (configuration not stated) | – | < 15 | < 15 | –
